Assay results: patent US20180353483A1, “PHARMACEUTICAL COMPOSITIONS AND METHODS FOR INDOLEAMINE, 2, 3-DIOXYGENASE INHIBITION AND INDICATIONS THEREFOR” (Incyte Corporation, priority 2015, published 2018)
“Also recorded” adds a separate entry of the source. Where two headings read alike, the source gives them in different places.

Experiments:
[1] = Dose-escalation study of Compound 1 pharmacokinetics in subjects with advanced malignancies (tablets of Formulations 1 and/or 3, fasted; food effect cohort); assay type: in vivo, human; conditions: for AUC: read-out: AUC0-τ
Excerpt: Thus, Cmax, Cmin and Tmax were taken directly from the observed plasma concentration data or imputed in some cases. The terminal-phase disposition rate constant (λz) was estimated using a log-linear regression of the concentration data in the terminal disposition phase, and t1/2 was estimated as ln(2)/λz. AUC0-t and AUC0-τ was estimated using the linear trapezoidal rule for increasing concentrations and the log-trapezoidal rule for decreasing concentrations. At the PK steady-state, the apparent oral-dose clearance, CL/F, was estimated as Dose/AUC0-τ, and Vz/F was estimated as Dose/[AUC0-τ*λz].
The log-transformed pharmacokinetic parameters were compared among the BID dose groups using a 1-factor ANOVA with the factor for dose. Dose-dependent exposure parameters (Cmax and AUC) were normalized to a common dose before statistical comparisons were made.
The oral bioavailability (F) and systemic clearance (CL) were estimated. […] This method of estimation assumes near complete oral absorption and the liver being the primary organ for drug clearance. […] The above equation was modified to incorporate the term of Fa to accommodate an incomplete absorption: CL=(QH*Fa*CL/F)/(QH+Fa*CL/F).

[2] = Preclinical PK, cynomolgus monkeys; assay type: in vivo
[3] = 50 mg BID, steady state, geometric mean
[4] = 50 mg BID, steady state, mean ± SD
[5] = 50 mg QD, steady state, mean ± SD
[6] = 100 mg BID, steady state, geometric mean
[7] = 100 mg BID, steady state, mean ± SD
[8] = 300 mg BID, steady state, geometric mean
[9] = 300 mg BID, steady state, mean ± SD
[10] = 400 mg BID, steady state, geometric mean
[11] = 400 mg BID, steady state, mean ± SD
[12] = 500 mg BID, steady state, geometric mean
[13] = 500 mg BID, steady state, mean ± SD
[14] = 600 mg BID, steady state, geometric mean
[15] = 600 mg BID, steady state, mean ± SD
[16] = 700 mg BID, steady state, geometric mean
[17] = 700 mg BID, steady state, mean ± SD
[18] = BID doses 50 to 700 mg, steady state
[19] = human, plasma, oral, 50 mg, 50 mg QD, steady state, geometric mean
[20] = human, plasma, oral, 100 mg, 100 mg BID, steady state, geometric mean
[21] = human, plasma, oral, 300 mg, 300 mg BID, steady state, geometric mean
[22] = human, plasma, oral, 400 mg, 400 mg BID, steady state, geometric mean
[23] = human, plasma, oral, 500 mg, 500 mg BID, steady state, geometric mean
[24] = human, plasma, oral, 600 mg, 600 mg BID, steady state, geometric mean
[25] = human, plasma, oral, 700 mg, 700 mg BID, steady state, geometric mean

## NS(=O)(=O)NCCNc1nonc1C(=NO)Nc1ccc(F)c(Br)c1 [Compound 1, 4-({2-[(aminosulfonyl)amino]ethyl}amino)-N-(3-bromo-4-fluorophenyl)-N′-hydroxy-1,2,5-oxadiazole-3-carboximidamide]
[1]; [3]
  CL/F: 40.3 L/h
  Cmax: 715 nM
[1]; [4]
  AUC0-τ: 3.05 ± 1.36 µM·h
  CL/F: 43.3 ± 19.2 L/h
  Cmax: 742 ± 212 nM
  Cmin: 84 ± 63 nM
  t1/2: 2.4 ± 0.56 h
[1]; 50 mg BID, steady state, median
  tmax: 2.0 h
[1]; 50 mg QD
  trough concentrations: low and generally not quantifiable
[1]; 50 mg QD, steady state, geometric mean
  CL/F: 73.0 L/h
[1]; [5]
  AUC(0-t): 1.39 ± 0.256 µM·h
  CL/F: 73.8 ± 14.7 L/h
  Cmin: 0 ± 0 nM
  t1/2: 2.4 ± 0.26 h
[1]; 50 mg QD, steady state, median
  tmax: 2.0 h
[1]; [6]
  CL/F: 42.4 L/h
  Cmin: 171 nM
[1]; [7]
  AUC0-τ: 5.77 ± 2.34 µM·h
  CL/F: 45.8 ± 20.9 L/h
  Cmax: 1230 ± 348 nM
  Cmin: 201 ± 111 nM
  t1/2: 3.3 ± 0.75 h
[1]; 100 mg BID, steady state, median
  tmax: 2.0 h
[1]; [8]
  CL/F: 70.2 L/h
  Cmin: 251 nM
  t1/2: 3.5 h
[1]; [9]
  AUC0-τ: 9.78 ± 0.86 µM·h
  CL/F: 70.4 ± 6.19 L/h
  Cmax: 2480 ± 515 nM
  Cmin: 287 ± 146 nM
  t1/2: 3.9 ± 2.1 h
[1]; 300 mg BID, steady state, median
  tmax: 2.0 h
[1]; [10]
  CL/F: 51.8 L/h
  Cmin: 523 nM
[1]; [11]
  AUC0-τ: 19.6 ± 7.43 µM·h
  CL/F: 62.3 ± 52.3 L/h
  Cmax: 4390 ± 2020 nM
  Cmin: 624 ± 339 nM
  t1/2: 2.7 ± 0.62 h
[1]; 400 mg BID, steady state, median
  tmax: 2.0 h
[1]; [12]
  CL/F: 58.0 L/h
  Cmin: 562 nM
[1]; [13]
  AUC0-τ: 20.6 ± 6.82 µM·h
  CL/F: 60.5 ± 19.1 L/h
  Cmin: 604 ± 260 nM
  t1/2: 2.4 ± 0.37 h
[1]; 500 mg BID, steady state, median
  tmax: 2.0 h
[1]; 600 mg BID, 1-way crossover ANOVA
  effect of a high-fat meal on plasma exposures: not statistically significant
[1]; 600 mg BID, food effect cohort, Fasted, median
  tmax: 2.0 h
[1]; 600 mg BID, steady state
  decrease of geometric mean Cmax by a high-fat meal: approximately 10%
  increase of geometric mean AUC0-12h by a high-fat meal: 22%
[1]; [14]
  CL/F: 63.5 L/h
  Cmin: 731 nM
[1]; [15]
  CL/F: 66.4 ± 18.6 L/h
  Cmin: 932 ± 704 nM
  t1/2: 3.3 ± 0.97 h
[1]; 600 mg BID, steady state, median
  tmax: 2.0 h
[1]; 700 mg BID
  highest steady-state mean unbound daily AUC0-24h (=2×AUC0-12h): 2.2 µM·h
[1]; [16]
  CL/F: 47.2 L/h
  Cmin: 1260 nM
[1]; [17]
  AUC0-τ: 35.8 ± 15.5 µM·h
  CL/F: 49.5 ± 17.1 L/h
  Cmax: 6230 ± 2090 nM
  Cmin: 1320 ± 417 nM
[1]; 50 to 700 mg BID
  dose proportionality of exposures (Cmax and AUC): slightly less than proportional to dose; also recorded: less than proportional to dose
[1]; [18]
  exponent β of power-function regression, AUC0-12h vs Dose: 0.843
  exponent β of power-function regression, Cmax vs Dose: 0.779
[1]; BID dosing
  increase of mean AUC0-τ by systemic accumulation: 33%
  increase of mean Cmax by systemic accumulation: 16%
[1]; geometric mean, pooled 42 subjects, Cycle 1 Day 15
  oral-dose clearance CL/F: 55.3 L/h
[1]; human, estimated
  systemic clearance in percent hepatic blood flow: 29%
[1]; human, estimated as mean of cynomolgus monkey and beagle dog
  fraction of oral dose absorbed (Fa): 64%
[1]; human, plasma, oral, 50 mg, 50 mg BID, steady state, geometric mean, read-out: AUC0-t
  AUC(0-t): 2.58 µM·h
[1]; human, plasma, oral, 50 mg, 50 mg BID, steady state, geometric mean
  AUC: 2.83 µM·h
[1]; human, plasma, oral, 50 mg, 50 mg BID, steady state, geometric mean, read-out: t1/2 (converted)
  half-life: 2.3 h
[1]; human, plasma, oral, 50 mg, 50 mg BID, steady state, mean ± SD, read-out: AUC0-t
  AUC(0-t): 2.74 ± 1.08 µM·h
[1]; [19]
  Cmax: 365 nM
  AUC: 1.56 µM·h
[1]; human, plasma, oral, 50 mg, 50 mg QD, steady state, geometric mean, read-out: AUC0-t
  AUC(0-t): 1.37 µM·h
[1]; human, plasma, oral, 50 mg, 50 mg QD, steady state, geometric mean, read-out: t1/2 (converted)
  half-life: 2.4 h
[1]; [20]
  Cmax: 1190 nM
  AUC: 5.38 µM·h
[1]; human, plasma, oral, 100 mg, 100 mg BID, steady state, geometric mean, read-out: AUC0-t
  AUC(0-t): 4.97 µM·h
[1]; human, plasma, oral, 100 mg, 100 mg BID, steady state, geometric mean, read-out: t1/2 (converted)
  half-life: 3.2 h
[1]; human, plasma, oral, 100 mg, 100 mg BID, steady state, mean ± SD, read-out: AUC0-t
  AUC(0-t): 5.32 ± 2.16 µM·h
[1]; [21]
  Cmax: 2440 nM
  AUC: 9.75 µM·h
[1]; human, plasma, oral, 300 mg, 300 mg BID, steady state, geometric mean, read-out: AUC0-t
  AUC(0-t): 8.88 µM·h
[1]; human, plasma, oral, 300 mg, 300 mg BID, steady state, mean ± SD, read-out: AUC0-t
  AUC(0-t): 8.92 ± 0.841 µM·h
[1]; [22]
  Cmax: 3880 nM
  AUC: 17.6 µM·h
[1]; human, plasma, oral, 400 mg, 400 mg BID, steady state, geometric mean, read-out: AUC0-t
  AUC(0-t): 15 µM·h
[1]; human, plasma, oral, 400 mg, 400 mg BID, steady state, geometric mean, read-out: t1/2 (converted)
  half-life: 2.6 h
[1]; human, plasma, oral, 400 mg, 400 mg BID, steady state, mean ± SD, read-out: AUC0-t
  AUC(0-t): 16.7 ± 6.79 µM·h
[1]; [23]
  Cmax: 4480 nM
  AUC: 19.7 µM·h
[1]; human, plasma, oral, 500 mg, 500 mg BID, steady state, geometric mean, read-out: AUC0-t
  AUC(0-t): 17.3 µM·h
[1]; human, plasma, oral, 500 mg, 500 mg BID, steady state, geometric mean, read-out: t1/2 (converted)
  half-life: 2.4 h
[1]; human, plasma, oral, 500 mg, 500 mg BID, steady state, mean ± SD, read-out: AUC0-t
  AUC(0-t): 18.2 ± 6.46 µM·h
[1]; human, plasma, oral, 600 mg, 600 mg BID, Fed (high-fat meal), geometric mean
  Cmax: 4030 nM
[1]; human, plasma, oral, 600 mg, 600 mg BID, Fed (high-fat meal), geometric mean, read-out: AUC0-12 h
  AUC(0-t): 25.8 µM·h
[1]; human, plasma, oral, 600 mg, 600 mg BID, Fed (high-fat meal), mean ± SD
  Cmax: 4530 ± 2520 nM
[1]; human, plasma, oral, 600 mg, 600 mg BID, Fed (high-fat meal), mean ± SD, read-out: AUC0-12 h
  AUC(0-t): 29.5 ± 18.2 µM·h
[1]; human, plasma, oral, 600 mg, 600 mg BID, Fed (high-fat meal), median, read-out: Tmax
  tmax: 6 h
[1]; human, plasma, oral, 600 mg, 600 mg BID, food effect cohort, Fasted, geometric mean
  Cmax: 4520 nM
[1]; human, plasma, oral, 600 mg, 600 mg BID, food effect cohort, Fasted, geometric mean, read-out: AUC0-12 h
  AUC(0-t): 21.6 µM·h
[1]; human, plasma, oral, 600 mg, 600 mg BID, food effect cohort, Fasted, mean ± SD
  Cmax: 4820 ± 2160 nM
[1]; human, plasma, oral, 600 mg, 600 mg BID, food effect cohort, Fasted, mean ± SD, read-out: AUC0-12 h
  AUC(0-t): 22.9 ± 9.99 µM·h
[1]; [24]
  Cmax: 4520 nM
  AUC: 21.6 µM·h
[1]; human, plasma, oral, 600 mg, 600 mg BID, steady state, geometric mean, read-out: AUC0-t
  AUC(0-t): 18.3 µM·h
[1]; human, plasma, oral, 600 mg, 600 mg BID, steady state, geometric mean, read-out: t1/2 (converted)
  half-life: 3.2 h
[1]; human, plasma, oral, 600 mg, 600 mg BID, steady state, mean ± SD, read-out: AUC0-t
  AUC(0-t): 19.5 ± 8.4 µM·h
[1]; human, plasma, oral, 600 mg, 600 mg BID, steady state, read-out: prolongation of Tmax by a high-fat meal
  tmax: 4 h
[1]; [25]
  Cmax: 6000 nM
  AUC: 33.9 µM·h
[1]; human, plasma, oral, 700 mg, 700 mg BID, steady state, geometric mean, read-out: AUC0-t
  AUC(0-t): 29.6 µM·h
[1]; human, plasma, oral, 700 mg, 700 mg BID, steady state, geometric mean, read-out: t1/2 (converted)
  half-life: 2.9 h
[1]; human, plasma, oral, 700 mg, 700 mg BID, steady state, mean ± SD, read-out: AUC0-t
  AUC(0-t): 30.8 ± 10.5 µM·h
[1]; human, plasma, oral, from accumulation ratio based on AUC, read-out: effective t1/2 (converted)
  half-life: ~6 h
[1]; human, plasma, oral, read-out: mean systemic clearance CL (converted)
  clearance: 417 mL/min
[1]; plasma, oral, human, estimated, CL/CLoral, read-out: mean absolute bioavailability (F)
  bioavailability: 45%
[1]; repeat 50 mg QD administration
  systemic accumulation: no evidence of systemic accumulation
[1]; repeat BID dosing, judged by trough plasma concentrations
  day on which steady-state of PK was observed: ≤ 8 days
[1]; suggested by accumulation of Cmax and AUC0-τ, BID dosing
  effective half-life: 4 to 6 h
[2]; cynomolgus monkey
  systemic clearance in percent hepatic blood flow: 31%
[2]; cynomolgus monkeys, estimated from preclinical PK studies (not shown)
  fraction of oral dose absorbed (Fa): 48%
[2]; monkeys
  renal excretion of unchanged compound: less than 3 % of IV dose
